Laboratory results taken from the supplement of paper PMC8671470.

Legend:
Conditions in all cases: 72 h
[1] = test system: myeloid leukemia patient primary cells Pat.10; test: cell viability (% survival relative to DMSO control); higher = less cytotoxic
In short: (§1)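 Thawed, Ficoll-purified mononuclear cells from AML or CML patients in RPMI 1640 with 10% FBS were seeded at 10,000 cells/well on 384-well plates pre-printed with 70 compounds at five tenfold concentrations, 1–10,000 nM, in duplicate, for 72 h. Viability was read by CellTiter-Glo and normalised to DMSO and 10 μM proteasome-inhibitor wells. Where given, area under the curve came from four-parameter log-logistic fits (drc, PharmacoGx R packages).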

[2] = test system: myeloid leukemia patient primary cells Pat.14; test: as above
In short: as §1

[3] = test system: myeloid leukemia patient primary cells Pat.1; test: as above
In short: as §1

[4] = test system: myeloid leukemia patient primary cells Pat.2; test: as above
In short: as §1

[5] = test system: myeloid leukemia patient primary cells Pat.6; test: as above
In short: as §1

[6] = test system: myeloid leukemia patient primary cells Pat.3; test: as above
In short: as §1

[7] = test system: myeloid leukemia patient primary cells Pat.15; test: as above
In short: as §1

[8] = test system: myeloid leukemia patient primary cells Pat.13; test: as above
In short: as §1

[9] = test system: myeloid leukemia patient primary cells Pat.12; test: as above
In short: as §1

[10] = test system: myeloid leukemia patient primary cells Pat.9; test: as above
In short: as §1

[11] = test system: myeloid leukemia patient primary cells Pat.11; test: as above
In short: as §1

[12] = test system: myeloid leukemia patient primary cells Pat.8; test: as above
In short: as §1

[13] = test system: myeloid leukemia patient primary cells Pat.7; test: as above
In short: as §1

[14] = test system: myeloid leukemia patient primary cells Pat.4; test: as above
In short: as §1

[15] = test system: myeloid leukemia patient primary cells Pat.5; test: as above
In short: as §1

KU-812 = test: cell viability (% survival relative to DMSO control, bortezomib = 0%); higher = less cytotoxic
In short: (§2)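 In 384-well plates pre-printed with compounds at 1, 10, 100, 1000 or 10000 nM, duplicate wells received cells from 10 AML and 5 CML lines at densities within the linear growth range. The plates stayed at 37 °C with 5% CO2 for 72 h before CellTiter-Glo luminescence was recorded. Each entry is averaged percent survival. Scaling placed vehicle at 100% and a 10 µM positive control at 0%.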

Mono-Mac-6 = test: as above
In short: as §2

NOMO-1 = test: as above
In short: as §2

THP-1 = test: as above
In short: as §2

Molecule Nc1nc(O)c2c(CCc3ccc(C(=O)N[C@@H](CCC(=O)O)C(=O)O)cc3)c[nH]c2n1 [Pemetrexed] has a cell viability ([1]; 1 nM) of 85.8%, a cell viability ([1]; 10 nM) of 86% and a cell viability ([1]; 100 nM) of 51.4%. It also gave a cell viability ([1]; 1000 nM) of 81.3%, a cell viability ([1]; 10000 nM) of 59.3% and a cell viability ([2]; 1 nM) of 86.9%. For the same molecule, the cell viability ([2]; 10 nM) was 82.5%, the cell viability ([2]; 100 nM) was 90.2% and the cell viability ([2]; 1000 nM) was 94.7%. The cell viability ([2]; 10000 nM) was 52.5%, the cell viability ([3]; 1 nM) was > 100% and the cell viability ([3]; 10 nM) was 99.3%. For the same molecule, the cell viability ([3]; 100 nM) was > 100%, the cell viability ([3]; 1000 nM) was 96.8% and the cell viability ([3]; 10000 nM) was 84.1%. For the same molecule, the cell viability ([4]; 1 nM) was 81.9%, the cell viability ([4]; 10 nM) was 96.3% and the cell viability ([4]; 100 nM) was 97.9%. It also gave a cell viability ([4]; 1000 nM) of 94.3%, a cell viability ([4]; 10000 nM) of 87.3% and a cell viability ([5]; 1 nM) of 96.3%. The cell viability ([5]; 10 nM) was > 100%, the cell viability ([5]; 100 nM) was 97.8% and the cell viability ([5]; 1000 nM) was 98.7%. The cell viability ([5]; 10000 nM) was 78.6%, the cell viability ([6]; 1 nM) was > 100% and the cell viability ([6]; 10 nM) was 79.5%. For the same molecule, the cell viability ([6]; 100 nM) was 76.8%, the cell viability ([6]; 1000 nM) was 50.9% and the cell viability ([6]; 10000 nM) was 45.7%. The cell viability ([7]; 1 nM) was 96.9%, the cell viability ([7]; 10 nM) was 98.4% and the cell viability ([7]; 100 nM) was > 100%. For the same molecule, the cell viability ([7]; 1000 nM) was 63.2%, the cell viability ([7]; 10000 nM) was 94.2% and the cell viability ([8]; 1 nM) was 91.5%. For the same molecule, the cell viability ([8]; 10 nM) was 94.6%, the cell viability ([8]; 100 nM) was 90.8% and the cell viability ([8]; 1000 nM) was 82.7%. For the same molecule, the cell viability ([8]; 10000 nM) was 82%, the cell viability ([9]; 1 nM) was > 100% and the cell viability ([9]; 10 nM) was 94.2%. It also gave a cell viability ([9]; 100 nM) of 95.4%, a cell viability ([9]; 1000 nM) of 99.1% and a cell viability ([9]; 10000 nM) of 97.1%. The cell viability ([10]; 1 nM) was 94.3%, the cell viability ([10]; 10 nM) was 67.3% and the cell viability ([10]; 100 nM) was 50.7%. The cell viability ([10]; 1000 nM) was > 100%, the cell viability ([10]; 10000 nM) was 32.6% and the cell viability ([11]; 1 nM) was > 100%. For the same molecule, the cell viability ([11]; 10 nM) was > 100%, the cell viability ([11]; 100 nM) was > 100% and the cell viability ([11]; 1000 nM) was > 100%. It also gave a cell viability ([11]; 10000 nM) of 93.9%, a cell viability ([12]; 1 nM) of 91.8% and a cell viability ([12]; 10 nM) of 88.4%. The cell viability ([12]; 100 nM) was 89.8%, the cell viability ([12]; 1000 nM) was 78.1% and the cell viability ([12]; 10000 nM) was 87.6%. For the same molecule, the cell viability ([13]; 1 nM) was 98.8%, the cell viability ([13]; 10 nM) was 68.1% and the cell viability ([13]; 100 nM) was 84.5%. For the same molecule, the cell viability ([13]; 1000 nM) was 74.1%, the cell viability ([13]; 10000 nM) was 66.3% and the cell viability ([14]; 1 nM) was > 100%. The cell viability ([14]; 10 nM) was 93.8%, the cell viability ([14]; 100 nM) was 93.1% and the cell viability ([14]; 1000 nM) was 67.3%. The cell viability ([14]; 10000 nM) was 82.8%, the cell viability ([15]; 1 nM) was > 100% and the cell viability ([15]; 10 nM) was 88.1%. The cell viability ([15]; 100 nM) was 43.2%, the cell viability ([15]; 1000 nM) was 83.4% and the cell viability ([15]; 10000 nM) was 14.5%. For the same molecule, the cell viability (KU-812; 1 nM) was 98.9%, the cell viability (KU-812; 10 nM) was 102% and the cell viability (KU-812; 100 nM) was 71.1%. It also gave a cell viability (KU-812; 1000 nM) of 38.6%, a cell viability (KU-812; 10000 nM) of 39.3% and a cell viability (Mono-Mac-6; 1 nM) of 91.2%. The cell viability (Mono-Mac-6; 10 nM) was 92.2%, the cell viability (Mono-Mac-6; 100 nM) was 87.3% and the cell viability (Mono-Mac-6; 1000 nM) was 23.5%. The cell viability (Mono-Mac-6; 10000 nM) was 20.3%, the cell viability (NOMO-1; 1 nM) was 91% and the cell viability (NOMO-1; 10 nM) was 94.8%. For the same molecule, the cell viability (NOMO-1; 100 nM) was 82.8%, the cell viability (NOMO-1; 1000 nM) was 51.9% and the cell viability (NOMO-1; 10000 nM) was 50.2%. It also gave a cell viability (THP-1; 1 nM) of 85%, a cell viability (THP-1; 10 nM) of 96% and a cell viability (THP-1; 100 nM) of 101%. For the same molecule, the cell viability (THP-1; 1000 nM) was 61.7% and the cell viability (THP-1; 10000 nM) was 56.8%.
Work on C=C1NC(=O)c2cc(CN(C)c3ccc(C(=O)N[C@@H](CCC(=O)O)C(=O)O)s3)ccc2N1 [Raltitrexed] yielded a cell viability ([1]; 1 nM) of 54.5%, a cell viability ([1]; 10 nM) of 74.6% and a cell viability ([1]; 100 nM) of 96.5%. For the same molecule, the cell viability ([1]; 1000 nM) was > 100%, the cell viability ([1]; 10000 nM) was 89.9% and the cell viability ([2]; 1 nM) was 71%. For the same molecule, the cell viability ([2]; 10 nM) was 94.5%, the cell viability ([2]; 100 nM) was > 100% and the cell viability ([2]; 1000 nM) was 90.2%. It also gave a cell viability ([2]; 10000 nM) of 92.1%, a cell viability ([3]; 1 nM) of 79.1% and a cell viability ([3]; 10 nM) of 96.9%. The cell viability ([3]; 100 nM) was 99.9%, the cell viability ([3]; 1000 nM) was 93.7% and the cell viability ([3]; 10000 nM) was > 100%. The cell viability ([4]; 1 nM) was 95.5%, the cell viability ([4]; 10 nM) was 95% and the cell viability ([4]; 100 nM) was > 100%. The cell viability ([4]; 1000 nM) was 99.7%, the cell viability ([4]; 10000 nM) was 98.5% and the cell viability ([5]; 1 nM) was 90.3%. For the same molecule, the cell viability ([5]; 10 nM) was 98.1%, the cell viability ([5]; 100 nM) was > 100% and the cell viability ([5]; 1000 nM) was > 100%. The cell viability ([5]; 10000 nM) was > 100%, the cell viability ([6]; 1 nM) was 81.1% and the cell viability ([6]; 10 nM) was > 100%. It also gave a cell viability ([6]; 100 nM) of 58.5%, a cell viability ([6]; 1000 nM) of 38.7% and a cell viability ([6]; 10000 nM) of 58.7%. For the same molecule, the cell viability ([7]; 1 nM) was 81.4%, the cell viability ([7]; 10 nM) was 90% and the cell viability ([7]; 100 nM) was 89.2%. For the same molecule, the cell viability ([7]; 1000 nM) was 95.1%, the cell viability ([7]; 10000 nM) was > 100% and the cell viability ([8]; 1 nM) was > 100%. For the same molecule, the cell viability ([8]; 10 nM) was 85.4%, the cell viability ([8]; 100 nM) was > 100% and the cell viability ([8]; 1000 nM) was 92.6%. It also gave a cell viability ([8]; 10000 nM) of 95.5%, a cell viability ([9]; 1 nM) of 86.9% and a cell viability ([9]; 10 nM) of 96.9%. For the same molecule, the cell viability ([9]; 100 nM) was > 100%, the cell viability ([9]; 1000 nM) was 95.9% and the cell viability ([9]; 10000 nM) was 98.6%. The cell viability ([10]; 1 nM) was 40.5%, the cell viability ([10]; 10 nM) was 84% and the cell viability ([10]; 100 nM) was 81.9%. The cell viability ([10]; 1000 nM) was 54.5%, the cell viability ([10]; 10000 nM) was 72.8% and the cell viability ([11]; 1 nM) was 93.9%. It also gave a cell viability ([11]; 10 nM) of 97.3%, a cell viability ([11]; 100 nM) of 99.3% and a cell viability ([11]; 1000 nM) of 97.4%. For the same molecule, the cell viability ([11]; 10000 nM) was 99.2%, the cell viability ([12]; 1 nM) was 90.8% and the cell viability ([12]; 10 nM) was 85.5%. For the same molecule, the cell viability ([12]; 100 nM) was 87.2%, the cell viability ([12]; 1000 nM) was 87.3% and the cell viability ([12]; 10000 nM) was > 100%. For the same molecule, the cell viability ([13]; 1 nM) was 64.8%, the cell viability ([13]; 10 nM) was > 100% and the cell viability ([13]; 100 nM) was 97.1%. The cell viability ([13]; 1000 nM) was 85.1%, the cell viability ([13]; 10000 nM) was > 100% and the cell viability ([14]; 1 nM) was 80.7%. The cell viability ([14]; 10 nM) was > 100%, the cell viability ([14]; 100 nM) was 94.1% and the cell viability ([14]; 1000 nM) was 97.6%. For the same molecule, the cell viability ([14]; 10000 nM) was > 100%, the cell viability ([15]; 1 nM) was 43.3% and the cell viability ([15]; 10 nM) was 90.4%. For the same molecule, the cell viability ([15]; 100 nM) was > 100%, the cell viability ([15]; 1000 nM) was 87% and the cell viability ([15]; 10000 nM) was 92.7%. For the same molecule, the cell viability (KU-812; 1 nM) was 94.1%, the cell viability (KU-812; 10 nM) was 104% and the cell viability (KU-812; 100 nM) was 37.7%. The cell viability (KU-812; 1000 nM) was 34.6%, the cell viability (KU-812; 10000 nM) was 39.1% and the cell viability (Mono-Mac-6; 1 nM) was 94.2%. It also gave a cell viability (Mono-Mac-6; 10 nM) of 108%, a cell viability (Mono-Mac-6; 100 nM) of 19.4% and a cell viability (Mono-Mac-6; 1000 nM) of 8.75%. For the same molecule, the cell viability (Mono-Mac-6; 10000 nM) was 9.59%, the cell viability (NOMO-1; 1 nM) was 99.5% and the cell viability (NOMO-1; 10 nM) was 113%. For the same molecule, the cell viability (NOMO-1; 100 nM) was 51.3%, the cell viability (NOMO-1; 1000 nM) was 34.8% and the cell viability (NOMO-1; 10000 nM) was 31.4%. It also gave a cell viability (THP-1; 1 nM) of 92.9%, a cell viability (THP-1; 10 nM) of 118% and a cell viability (THP-1; 100 nM) of 61.4%. For the same molecule, the cell viability (THP-1; 1000 nM) was 40.7% and the cell viability (THP-1; 10000 nM) was 46.1%.
